Reference: patent US20220133687A1, “METHODS OF TREATING AND PREVENTING NEURODEGENERATIVE DISEASES WITH HGF ACTIVATING COMPOUNDS” (Synaptogenix, Inc., priority 2020, published 2022)
Read-outs that look alike come from different tables or passages of the source.

Experiments:
PKC [1] = conditions: cited from earlier work
PKC-ε = test: Mouse dosing study: brain PKC-ε downregulation; assay type: in vivo; conditions: mice, 25 μg/m^2 three consecutive weekly doses vs lower doses
Description: (§1) The following metrics may be used to evaluate dosing regimens: induction of brain postsynaptic anchoring protein PSD-95, upregulation of BDNF levels in brain, upregulation of HGF levels in brain, minimal downregulation of PKC-c levels, and elevation of brain and plasma concentrations of bryostatin or other HGF activating compound. Groups of 2-3 mice may be formed and housed in an approved research animal facility. Water may be given ad libitum. A first study involves three groups of mice with animals in each group dosed weekly for 1, 2, 3, or 6 consecutive weeks. Each group has its own control group containing the same number of mice. For example, mice in the first, second and third groups may receive an intravenous (i.v.) injection of 10 μg/m^2, 15 μg/m^2, and 25 μg/m^2 dose of bryostatin or other HGF activating compound respectively. For each dose, mice in that group may receive a single injection of bryostatin or other HGF activating compound weekly for a predetermined number of consecutive weeks. Following dosing, mice are sacrificed and the blood and brain of each animal is collected for further analysis.
A similar observation can be made concerning the levels of the synaptogenesis marker PSD-95. […] Continued weekly dosing at 10 μg/m^2 for another three consecutive weeks (total of 6 consecutive weeks) may result in downregulation. […]

PSD-95 = test: Mouse dosing study: PSD-95 levels; assay type: in vivo; conditions: mice, 25 μg/m^2 i.v. once per week, after three weeks
Description: as §1
A similar observation can be made concerning the levels of the synaptogenesis marker PSD-95. […] Continued weekly dosing at 10 μg/m^2 for another three consecutive weeks (total of 6 consecutive weeks) may result in downregulation.

BDNF = test: Mouse dosing study: brain BDNF levels; assay type: in vivo; conditions: mice
Description: as §1
At a dose of 25 μg/m^2, the levels of brain BDNF may increase with each successive week of dosing, that is, brain BDNF levels may be greatest after three consecutive weeks of dosing. […]

PKC [2] = target: T1, PKC; conditions: competition with [3H] phorbol dibutyrate; cited from earlier work
T1 construct: rows headed: Ki for PKC

[3] = system: squamous cell carcinoma and melanoma; conditions: used topically; cited from earlier work
NCI 60 cell line screen = conditions: cited from earlier work
protein kinase C = conditions: (−)-enantiomer; read-out: potency EC50; cited from earlier work

For CCCCCCCC(=O)O[C@H]1/C(=C/C(=O)OC)C[C@H]2C[C@H](CO)OC(=O)C[C@H](O)C[C@@H]3CCC[C@H](C[C@@H]4CCO[C@H](/C=C/C(C)(C)[C@]1(O)O2)O4)O3 [Analog 1], the “affinity for PKC (in words)” value (PKC [1]) is listed as “highest affinity for PKC” and the Ki (PKC [1]; read-out: PKC Affin) is listed as 0.25 nM.
In the case of CCC/C=C/C=C/C(=O)O[C@H]1/C(=C/C(=O)OC)C[C@H]2C[C@H]([C@@H](C)O)OC(=O)C[C@H](O)C[C@@H]3C[C@H](OC(C)=O)C(C)(C)[C@](O)(C[C@@H]4C/C(=C/C(=O)OC)C[C@H](/C=C/C(C)(C)[C@]1(O)O2)O4)O3 [Bryostatin-1], the “PKC-ε downregulation in brain” value (PKC-ε) is reported as “may not produce more PKC-c downregulation”, the “amounts of PSD-95 in brain and blood samples” value (PSD-95) is reported as “higher amounts of PSD-95” and the “levels of brain BDNF” value (BDNF; 15 μg/m^2 weekly for three consecutive weeks) is reported as “some increase”. The “levels of brain BDNF” value (BDNF; 25 μg/m^2 weekly) was “maximum increase”.
For CC1=C[C@]23C(=O)[C@@H](C=C(COC(=O)c4ccccc4)[C@@H](O)[C@]2(O)[C@H]1OC(=O)c1ccccc1)[C@H]1[C@@H](C[C@H]3C)C1(C)C [Ingenol 3,20-dibenzoate], the Ki (PKC [2]) is listed as 240 nM.
For C/C=C(/C)C(=O)O[C@H]1C(C)=C[C@]23C(=O)[C@@H](C=C(CO)[C@@H](O)[C@]12O)[C@H]1[C@@H](C[C@H]3C)C1(C)C [Ingenol-3-angelate], the antitumor activity [3] is given as “exhibits antitumor activity”.
For CC1=CC[C@H](C)C(C)(C)[C@@H]1/C=C/C(C)=C/CC[C@@]1(CO)[C@H](CCCO)/C(=C(/C)C=O)CC[C@]1(C)O [Iripallidal], the “GI50 (concentration required to inhibit growth by 50%)” value (NCI 60 cell line screen) is given as “micromolar to nanomolar range”.
For CCCCCCCCc1ccc2c3c(c[nH]c13)C[C@@H](CO)NC(=O)[C@H](C(C)C)N2C [Octylindolactam V], the EC50 (protein kinase C) is given as 29 nM.
